In patent US10046014B2, “Useful active agent for preventing and/or treating dandruff conditions of the scalp” (L'OREAL, priority 2011, dated 2018):

Columns and labels:
Malassezia restricta = assay: Antifungal inhibition test on agar (Malassezia suspension, growth scored against control); type: cell-based; set-up: key to inhibition score (density of the culture at the surface of the agar vs growth control): 3: No growth; 2: Growth < in the control dish; 1: Growth < in the control dish; 0: Growth comparable to the control dish; conditions: positive reference 1% zinc pyrithione
Experimental: (§1) The test product is brought into contact with the Malassezia suspension. The mixture is deposited at the surface of agar medium. It is spread and the excess is recovered before incubation. It is incubated for at least 5 days at 30° C.
(§2) The products are placed in solution in liquid modified Leeming and Notman medium (LNm) and the tests are carried out in duplicate. The complete culture is at 7.5 g/l or 150 g/l (concentrated version) on a dry matter basis.
(§3) The complete culture was tested at 10% (for the concentration at 7.5 g/l) and at 1% (for the concentration at 150 g/l).
(§4) The positive reference is 1% zinc pyrithione.
(§5) The solutions of the products are twice as concentrated in order to take into account the dilution to ½ during the bringing into contact with the Malassezia suspension.
(§6) The Malassezia globosa and restricta strains were received on agar slopes and were subcultured and incubated at 30° C. until the tests.
(§7) The suspensions are prepared in 15 ml of a buffered solution (ref AEB611294, AES).
(§8) The density of the suspensions is taken at 550 nm.
(§9) The antifungal effect of the reference product is evaluated via the absence of growth of the Malassezia strain tested. This inhibition is evaluated relative to the growth control.
(§10) The inhibitions are scored from 3 to 0 via assessment of the density of the culture at the surface of the agar, in comparison with the growth control for the strain.

Malassezia globosa = assay: as above; type: cell-based; set-up: key to inhibition score (density of the culture at the surface of the agar vs growth control): 3: No growth; 2: Growth < in the control dish; 1: Growth < in the control dish; 0: Growth comparable to the control dish; conditions: positive reference 1% zinc pyrithione
Experimental: as §1, §2, §3, §4, §5, §6, §7, §8, §9, §10

## Zinc pyrithione
Malassezia restricta
  inhibition in words: Total inhibition
Malassezia restricta; at least 5 days at 30° C.
  inhibition score (density of the culture at the surface of the agar vs growth control): 3
Malassezia globosa
  inhibition in words: Total inhibition
Malassezia globosa; at least 5 days at 30° C.
  inhibition score (density of the culture at the surface of the agar vs growth control): 3
